± gives the expanded uncertainty stated by the source.
Tests used:
[1] = 298.15 K; 101.33 kPa; Liquid; Pycnometric method
[2] = molar heat capacity at constant pressure; conditions: 101.3 kPa, Liquid, Large sample (1 g) DSC
[3] = molar heat capacity at constant pressure; xn = mol fraction of the nth substance listed; conditions: 101.3 kPa, Liquid, Large sample (1 g) DSC, x2 = 0

Question: For CC(O)CCO (centres undefined) [1,3-butanediol], which mass density [1] is on record?
Answer: 1000.42 ± 1 kg/m3

Question: And the “molar heat capacity at constant pressure” value ([2]; 285.15 K)?
Answer: 211.74 ± 3.3 J/K/mol

Question: And the “molar heat capacity at constant pressure” value ([2]; 285.65 K)?
Answer: 212.17 ± 3.3 J/K/mol

Question: What about the “molar heat capacity at constant pressure” value ([2]; 288.15 K) of the same compound?
Answer: 213.57 ± 3.3 J/K/mol

Question: And the “molar heat capacity at constant pressure” value ([2]; 290.65 K)?
Answer: 215.06 ± 3.3 J/K/mol

Question: What about the “molar heat capacity at constant pressure” value ([2]; 293.15 K) of the same compound?
Answer: 216.58 ± 3.4 J/K/mol

Question: And the “molar heat capacity at constant pressure” value ([2]; 295.65 K)?
Answer: 218.04 ± 3.4 J/K/mol

Question: What about the “molar heat capacity at constant pressure” value ([2]; 298.15 K) of the same compound?
Answer: 219.62 ± 3.4 J/K/mol

Question: What about the “molar heat capacity at constant pressure” value ([2]; 300.65 K) of the same compound?
Answer: 221.14 ± 3.4 J/K/mol

Question: And the “molar heat capacity at constant pressure” value ([2]; 303.15 K)?
Answer: 222.8 ± 3.5 J/K/mol

Question: And the “molar heat capacity at constant pressure” value ([2]; 305.65 K)?
Answer: 224.37 ± 3.5 J/K/mol

Question: And the “molar heat capacity at constant pressure” value ([2]; 308.15 K)?
Answer: 226.07 ± 3.5 J/K/mol

Question: And the “molar heat capacity at constant pressure” value ([2]; 310.65 K)?
Answer: 227.65 ± 3.5 J/K/mol

Question: What about the “molar heat capacity at constant pressure” value ([2]; 313.15 K) of the same compound?
Answer: 229.24 ± 3.5 J/K/mol

Question: And the “molar heat capacity at constant pressure” value ([2]; 315.65 K)?
Answer: 230.82 ± 3.6 J/K/mol

Question: And the “molar heat capacity at constant pressure” value ([2]; 318.15 K)?
Answer: 232.6 ± 3.6 J/K/mol

Question: And the “molar heat capacity at constant pressure” value ([2]; 320.65 K)?
Answer: 234.14 ± 3.6 J/K/mol

Question: What about the “molar heat capacity at constant pressure” value ([2]; 323.15 K) of the same compound?
Answer: 235.83 ± 3.6 J/K/mol

Question: And the “molar heat capacity at constant pressure” value ([2]; 325.65 K)?
Answer: 237.52 ± 3.7 J/K/mol

Question: And the “molar heat capacity at constant pressure” value ([2]; 328.15 K)?
Answer: 239.08 ± 3.7 J/K/mol

Question: What about the “molar heat capacity at constant pressure” value ([2]; 330.65 K) of the same compound?
Answer: 240.59 ± 3.7 J/K/mol

Question: What about the “molar heat capacity at constant pressure” value ([2]; 333.15 K) of the same compound?
Answer: 242.28 ± 3.8 J/K/mol

Question: And the “molar heat capacity at constant pressure” value ([2]; 335.65 K)?
Answer: 243.86 ± 3.8 J/K/mol

Question: And the “molar heat capacity at constant pressure” value ([2]; 338.15 K)?
Answer: 245.11 ± 3.8 J/K/mol

Question: What about the “molar heat capacity at constant pressure” value ([2]; 340.65 K) of the same compound?
Answer: 247.19 ± 3.8 J/K/mol

Question: What about the “molar heat capacity at constant pressure” value ([2]; 343.15 K) of the same compound?
Answer: 248.62 ± 3.9 J/K/mol

Question: And the “molar heat capacity at constant pressure” value ([2]; 345.65 K)?
Answer: 250.13 ± 3.9 J/K/mol

Question: And the “molar heat capacity at constant pressure” value ([2]; 348.15 K)?
Answer: 251.66 ± 3.9 J/K/mol

Question: And the “molar heat capacity at constant pressure” value ([2]; 350.65 K)?
Answer: 253.24 ± 3.9 J/K/mol

Question: What about the “molar heat capacity at constant pressure” value ([2]; 353.15 K) of the same compound?
Answer: 254.86 ± 4 J/K/mol

Question: With CCCCO [butan-1-ol] + CC(O)CCO as the compound, how does the “molar heat capacity at constant pressure” value ([3]; 285.15 K) read?
Answer: 168.64 ± 2.6 J/K/mol

Question: What about the “molar heat capacity at constant pressure” value ([3]; 285.65 K) of the same compound?
Answer: 169.01 ± 2.6 J/K/mol

Question: What about the “molar heat capacity at constant pressure” value ([3]; 288.15 K) of the same compound?
Answer: 170.39 ± 2.6 J/K/mol

Question: And the “molar heat capacity at constant pressure” value ([3]; 290.65 K)?
Answer: 172 ± 2.7 J/K/mol

Question: And the “molar heat capacity at constant pressure” value ([3]; 293.15 K)?
Answer: 173.56 ± 2.7 J/K/mol

Question: What about the “molar heat capacity at constant pressure” value ([3]; 295.65 K) of the same compound?
Answer: 175.19 ± 2.7 J/K/mol

Question: What about the “molar heat capacity at constant pressure” value ([3]; 298.15 K) of the same compound?
Answer: 176.82 ± 2.7 J/K/mol

Question: What about the “molar heat capacity at constant pressure” value ([3]; 300.65 K) of the same compound?
Answer: 178.53 ± 2.8 J/K/mol

Question: What about the “molar heat capacity at constant pressure” value ([3]; 303.15 K) of the same compound?
Answer: 180.42 ± 2.8 J/K/mol

Question: What about the “molar heat capacity at constant pressure” value ([3]; 305.65 K) of the same compound?
Answer: 182.27 ± 2.8 J/K/mol

Question: What about the “molar heat capacity at constant pressure” value ([3]; 308.15 K) of the same compound?
Answer: 184.15 ± 2.9 J/K/mol

Question: What about the “molar heat capacity at constant pressure” value ([3]; 310.65 K) of the same compound?
Answer: 186.08 ± 2.9 J/K/mol

Question: What about the “molar heat capacity at constant pressure” value ([3]; 313.15 K) of the same compound?
Answer: 187.99 ± 2.9 J/K/mol

Question: And the “molar heat capacity at constant pressure” value ([3]; 315.65 K)?
Answer: 189.99 ± 2.9 J/K/mol

Question: What about the “molar heat capacity at constant pressure” value ([3]; 318.15 K) of the same compound?
Answer: 192.06 ± 3 J/K/mol

Question: And the “molar heat capacity at constant pressure” value ([3]; 320.65 K)?
Answer: 194.2 ± 3 J/K/mol

Question: And the “molar heat capacity at constant pressure” value ([3]; 323.15 K)?
Answer: 196.35 ± 3 J/K/mol

Question: And the “molar heat capacity at constant pressure” value ([3]; 325.65 K)?
Answer: 198.45 ± 3.1 J/K/mol

Question: What about the “molar heat capacity at constant pressure” value ([3]; 328.15 K) of the same compound?
Answer: 200.45 ± 3.1 J/K/mol

Question: And the “molar heat capacity at constant pressure” value ([3]; 330.65 K)?
Answer: 202.76 ± 3.1 J/K/mol

Question: And the “molar heat capacity at constant pressure” value ([3]; 333.15 K)?
Answer: 204.94 ± 3.2 J/K/mol

Question: And the “molar heat capacity at constant pressure” value ([3]; 335.65 K)?
Answer: 207.1 ± 3.2 J/K/mol

Question: And the “molar heat capacity at constant pressure” value ([3]; 338.15 K)?
Answer: 209.17 ± 3.2 J/K/mol

Question: What about the “molar heat capacity at constant pressure” value ([3]; 340.65 K) of the same compound?
Answer: 211.74 ± 3.3 J/K/mol

Question: What about the “molar heat capacity at constant pressure” value ([3]; 343.15 K) of the same compound?
Answer: 213.82 ± 3.3 J/K/mol

Question: And the “molar heat capacity at constant pressure” value ([3]; 345.65 K)?
Answer: 216.35 ± 3.4 J/K/mol

Question: What about the “molar heat capacity at constant pressure” value ([3]; 348.15 K) of the same compound?
Answer: 218.32 ± 3.4 J/K/mol

Question: What about the “molar heat capacity at constant pressure” value ([3]; 350.65 K) of the same compound?
Answer: 220.5 ± 3.4 J/K/mol

Question: What about the “molar heat capacity at constant pressure” value ([3]; 353.15 K) of the same compound?
Answer: 222.81 ± 3.5 J/K/mol

Question: What does the source list for CCCCO [butan-1-ol]?
Answer: mass density [1]: 805.82 ± 1 kg/m3; molar heat capacity at constant pressure ([2]; 285.15 K): 168.64 ± 2.6 J/K/mol; molar heat capacity at constant pressure ([2]; 285.65 K): 169.01 ± 2.6 J/K/mol; molar heat capacity at constant pressure ([2]; 288.15 K): 170.39 ± 2.6 J/K/mol; molar heat capacity at constant pressure ([2]; 290.65 K): 172 ± 2.7 J/K/mol; molar heat capacity at constant pressure ([2]; 293.15 K): 173.56 ± 2.7 J/K/mol; molar heat capacity at constant pressure ([2]; 295.65 K): 175.19 ± 2.7 J/K/mol; molar heat capacity at constant pressure ([2]; 298.15 K): 176.82 ± 2.7 J/K/mol; molar heat capacity at constant pressure ([2]; 300.65 K): 178.53 ± 2.8 J/K/mol; molar heat capacity at constant pressure ([2]; 303.15 K): 180.42 ± 2.8 J/K/mol; molar heat capacity at constant pressure ([2]; 305.65 K): 182.27 ± 2.8 J/K/mol; molar heat capacity at constant pressure ([2]; 308.15 K): 184.15 ± 2.9 J/K/mol; molar heat capacity at constant pressure ([2]; 310.65 K): 186.08 ± 2.9 J/K/mol; molar heat capacity at constant pressure ([2]; 313.15 K): 187.99 ± 2.9 J/K/mol; molar heat capacity at constant pressure ([2]; 315.65 K): 189.99 ± 2.9 J/K/mol; molar heat capacity at constant pressure ([2]; 318.15 K): 192.06 ± 3 J/K/mol; molar heat capacity at constant pressure ([2]; 320.65 K): 194.2 ± 3 J/K/mol; molar heat capacity at constant pressure ([2]; 323.15 K): 196.35 ± 3 J/K/mol; molar heat capacity at constant pressure ([2]; 325.65 K): 198.45 ± 3.1 J/K/mol; molar heat capacity at constant pressure ([2]; 328.15 K): 200.45 ± 3.1 J/K/mol; molar heat capacity at constant pressure ([2]; 330.65 K): 202.76 ± 3.1 J/K/mol; molar heat capacity at constant pressure ([2]; 333.15 K): 204.94 ± 3.2 J/K/mol; molar heat capacity at constant pressure ([2]; 335.65 K): 207.1 ± 3.2 J/K/mol; molar heat capacity at constant pressure ([2]; 338.15 K): 209.17 ± 3.2 J/K/mol; molar heat capacity at constant pressure ([2]; 340.65 K): 211.74 ± 3.3 J/K/mol; molar heat capacity at constant pressure ([2]; 343.15 K): 213.82 ± 3.3 J/K/mol; molar heat capacity at constant pressure ([2]; 345.65 K): 216.35 ± 3.4 J/K/mol; molar heat capacity at constant pressure ([2]; 348.15 K): 218.32 ± 3.4 J/K/mol; molar heat capacity at constant pressure ([2]; 350.65 K): 220.5 ± 3.4 J/K/mol; molar heat capacity at constant pressure ([2]; 353.15 K): 222.81 ± 3.5 J/K/mol

— the NIST ThermoML archive (doi:10.1016/j.jct.2004.09.007)
